Experimental data taken from patent US6706509B2, “Oncoprotein protein kinase” (The Regents of the University of California, priority 1993, dated 2004).

Columns and labels:
JNK [1] = assay: Solid-state phosphorylation assay of JNK on GSTcJun(1-223)-GSH agarose beads, Jurkat cells; assay type: cell-based, human; details: for JNK activation together with suboptimal dose of TPA: A23187, anti-CD3 or anti-CD28 plus suboptimal TPA; for JNK activation, solid-state assay, agent alone: TPA 50 ng/ml or A23187 1 μg/ml, 15 minutes
Experimental: Exponentially growing cells were stimulated for the indicated times and hypotonic detergent cellular extracts were prepared as described (Hibi, et al., Genes and Dev., supra, 1993). The solid-state phosphorylation assay for measuring JNK activity was performed by incubated extracts with GSTcJun(1-223)-GSH agarose beads as described (Hibi, et al., supra., 1993) and as in Example 2. ERK1 and 2 activity was assayed by an immunecomplex kinase assay using MBP as a substrate (Minden, et al., Nature, 1993).
JNK can be retained on GSTcJun-glutathione (GSH) agarose affinity resin and its kinase activity measured by phosphorylation of GSTcJun. WCE (50 μg) of Jurkat cells treated as described above were incubated with 5 μl of GSH agarose beads coated with 10 μg GST-cJun (1-223) for 12 hours at 4° C. After extensive washing, the beads were incubated in kinase buffer containing γ-^32P-ATP for 20 minutes at 30° C., after which the proteins were dissociated by incubation in SDS sample buffer and separated by SDS-PAGE (FIG. 13B). The 49 kD band corresponds to GST-cJun (1-223). The faster migrating bands are degradation products (Hibi, et al., supra, 1993).
WCE (50 μg) of Jurkat cells treated as described above were incubated with GSTcJun(1-223)-GSH agarose beads and assayed for JNK activity using the solid-state kinase assay. The same WCE (20 μg) were immunoprecipitated with anti-ERK2 antibodies and assayed for MBP-kinase activity.
WCE (50 μg) of Jurkat cells treated as described in Panel A with various stimuli alone or their combinations were incubated with GSTcJun(1-223)-GSH agarose beads and assayed for JNK activity using solid-state kinase assay. The same samples (20 μg) were also assayed for MBP-kinase activity as described in FIG. 16B.

jun-B = assay: Northern blot of jun-B expression in Jurkat cells; assay type: cell-based, human; details: 40 minutes; for effect on jun-B induction by TPA: A23187 1 μg/ml or CsA 100 ng/ml
Experimental: Exponentially growing Jurkat cells (10^6/ml) grown in complete RPMI medium was pretreated with CsA for 15 minutes when applicable, then subjected to various treatments for another 40 minutes. Total cytoplasmic RNA was extracted as previously described (Angel, et al., Cell, 49:729-739, 1987). 10 μg RNA was denatured by incubating with glyoxal for 60 minutes at 55° C. and fractionated on a 1% agarose gel in phosphate buffer. The fractionated RNA was blotted to Zetabind Nylon membrane (CUNO Labs) and hybridized to ^32P-labelled cDNA probes specific for c-jun, jun-B, jun-D, c-fos, α-tubulin and IL-2.
During the first stage of T lymphocyte activation, early response genes are rapidly included (Crabtree, Science, 243:355,361, 1989; Zipfel, et al., Mol Cell Bio., 9:1041-1048, 1989). Induction of jun and fos genes during activation of the Jurkat T cell line was investigated. Two different co-stimulatory paradigms were used, one employing TPA and the Ca^2+ ionophore A23187, and the second based on simultaneous stimulation of the TCR complex with an antibody to its CD3 component (OKT3; Van Wauwe, et al., J. Immunol., 124:2708-2713, 1980) and stimulation of the CD28 auxiliary receptor with an anti-CD28 antibody (9.3; Hansen, et al., Immunogenetics, 10:247-260, 1993; June, et al., Immunol. Today, 11:211-216, 1990). Total cytoplasmic RNA was extracted from Jurkat cells that were incubated with 50 ng/ml TPA (T), 1 μg/ml A23187 (A) or 100 ng/ml cyclosporin A (CsA) for 40 minutes, either alone or in combinations, as indicated. After fractionation of 10 μg samples on an agarose gel and transfer to nylon membrane, the level of c-jun, jun-B, jun-D, c-fos and α-tubulin expression was determined by hybridization to random primed cDNA probes.

JNK [2] = assay: Solid-state phosphorylation assay of JNK in FR3T3, CV-1 and PC12 cells; assay type: cell-based; details: for JNK activity, effect of A23187 or CsA treatment: FR3T3, CV-1 and PC12 cells, A23187 1 μg/ml, CsA 100 ng/ml
Experimental: We examined whether elevated intracellular Ca^++ affects JNK activation in other cells. […] Cultures of FR3T3, CV-1, PC12 and mouse thymocytes were incubated for 15 minutes in the presence of TPA (50 ng/ml, T), A23817 (1 μg/ml, A) and/or CsA (100 ng/ml), as indicated. WCE prepared from 2-4×10^5 cells for the established cell lines and 1.5×10^6 cells for primary thymocytes were incubated with GSTcJun(1-223)-GSH agarose beads. After washing, JNK activity was determined by solid-state phosphorylation assay as described above.

Compound	JNK activation together with suboptimal dose of TPA (JNK [1]; Jurkat)	effect on jun-B induction by TPA (jun-B)	JNK activity, effect of A23187 or CsA treatment (JNK [2])	JNK activation, solid-state assay, agent alone (JNK [1]; Jurkat)	other results
anti-CD3: anti-CD3 monoclonal antibody OKT3	strong synergistic activation of JNK				JNK activation, combined treatment with A23187 (JNK [1]; Jurkat, anti-CD3 or anti-CD28 plus A23187): efficiently activated
cyclosporin A [CsA]		not affected	In none of these cells was JNK activity affected		JNK activation, solid-state assay, CsA added to TPA+A23187 (JNK [1]; CsA 100 ng/ml): inhibited; JNK activation by suboptimal TPA+A23187, effect of CsA (JNK [1]; Jurkat): completely inhibited; JNK activation by anti-CD3+anti-CD28, effect of CsA (JNK [1]; Jurkat, CsA 100 ng/ml): partially attenuated this effect
CNc1ccc2oc(C[C@H]3O[C@@]4(CC[C@H]3C)O[C@H]([C@H](C)C(=O)c3ccc[nH]3)[C@H](C)C[C@H]4C)nc2c1C(=O)O [A23187]	strong synergistic activation of JNK	not affected	In none of these cells was JNK activity affected	had no effect	JNK activation, solid-state assay, costimulation with TPA (JNK [1]; A23187 1 μg/ml plus TPA 50 ng/ml): strongly potentiated
CCCCCCCCCCCCCC(=O)O[C@@H]1[C@@H](C)[C@@]2(O)[C@@H](C=C(CO)C[C@]3(O)C(=O)C(C)=C[C@@H]23)[C@H]2C(C)(C)[C@]12OC(C)=O [TPA]				activation of JNK	jun-B expression, agent alone (jun-B; TPA 50 ng/ml): induced; JNK activity, TPA alone (JNK [2]; CV1 and FR3T3 cells, TPA 50 ng/ml, 15 minutes): weakly stimulated; JNK activation, suboptimal dose of TPA by itself (JNK [1]; Jurkat): does not lead to JNK activation
